Values of other authors as cited in patent publication US10517855B1, “Interleukins activity inhibiting composition” (priority 2019, dated 2019).

Legend:
[1] = tested on: apomorphine-induced stereotypy; details: preclinical studies
[2] = tested on: MK-801-induced hyperlocomotion, working memory deficit and social withdrawal; details: preclinical studies
[3] = tested on: haloperidol-induced catalepsy; details: preclinical studies
[4] = tested on: amphetamine-induced lethality and stereotypy; details: preclinical studies
[5] = preclinical studies
avian malaria = details: in vivo

| Compound | apomorphine-induced stereotypy [1] | MK-801-induced hyperlocomotion [2] | MK-801-induced social withdrawal [2] | MK-801-induced working memory deficit [2] | haloperidol-induced catalepsy [3] | amphetamine-induced lethality [4] | amphetamine-induced stereotypy [4] | anxiolytic-like effects [5] | activity against avian malaria (avian malaria) |
| --- | --- | --- | --- | --- | --- | --- | --- | --- | --- |
| COC(=O)C1=CO[C@@H](C)[C@@H]2Cn3ccc4c5ccccc5nc-4c3C[C@H]12 [Alstonine] | attenuates | attenuates | attenuates | attenuates | attenuates | attenuates | attenuates | possesses anxiolytic-like effects |  |
| C/C=C1/CN2CC[C@@]34c5cc(O)ccc5N(C)[C@]35OC[C@@]4(C(=O)OC)[C@H]1C[C@H]25 [akuammine] |  |  |  |  |  |  |  |  | inactive |
